pIC50: −log10 of the molar value.
System: 699152-130-R-J1-PDC complex spheroid viability
Assay: Anticancer human tumor 699152-130-R-J1-PDC patient-derived pancreatic carcinoma cell line growth inhibition [POLQ]
Conditions: for pIC50: curve of first compound; for viability, T/C: stronger effect = lower value
In short: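 Three-cell-type spheroids modelling solid tumor plus stroma served as the readout system; POL inhibitors were tested individually and in combination, concentration ranges set by clinical Cmax where known.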

[1] = second compound 0.0316 µM, first compound 0.0316 µM
[2] = second compound 0.0316 µM, first compound 0.1 µM
[3] = second compound 0.0316 µM, first compound 0.316 µM
[4] = second compound 0.0316 µM, first compound 1 µM
[5] = second compound 0.1 µM, first compound 0.0316 µM
[6] = second compound 0.1 µM, first compound 0.1 µM
[7] = second compound 0.1 µM, first compound 0.316 µM
[8] = second compound 0.1 µM, first compound 1 µM
[9] = second compound 0.316 µM, first compound 0.0316 µM
[10] = second compound 0.316 µM, first compound 0.1 µM
[11] = second compound 0.316 µM, first compound 0.316 µM
[12] = second compound 0.316 µM, first compound 1 µM
[13] = second compound 1 µM, first compound 0.0316 µM
[14] = second compound 1 µM, first compound 0.1 µM
[15] = second compound 1 µM, first compound 0.316 µM
[16] = second compound 1 µM, first compound 1 µM
[17] = second compound 3.16 µM, first compound 0.0316 µM
[18] = second compound 3.16 µM, first compound 0.1 µM
[19] = second compound 3.16 µM, first compound 0.316 µM
[20] = second compound 3.16 µM, first compound 1 µM
[21] = second compound 10 µM, first compound 0.0316 µM
[22] = second compound 10 µM, first compound 0.1 µM
[23] = second compound 10 µM, first compound 0.316 µM
[24] = second compound 10 µM, first compound 1 µM
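Note: spheroids exposed to agents for 7 days before viability reading.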
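Throughout, for viability, T/C: percent of DMSO vehicle control viability so 100% = vehicle and 0% = no viable signal.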

Compound: C=CCn1c(=O)c2cnc(Nc3ccc(N4CCN(C)CC4)cc3)nc2n1-c1cccc(C(C)(C)O)n1 + COC1C(OC(N)=O)C(O)C(Oc2ccc3c(O)c(NC(=O)c4ccc(O)c(CC=C(C)C)c4)c(=O)oc3c2C)OC1(C)C
- pIC50 (second compound 0.0316 µM): < 6.00
- pIC50 (second compound 0.1 µM): < 6.00
- pIC50 (second compound 0.316 µM): < 6.00
- pIC50 (second compound 1 µM): < 6.00
- pIC50 (second compound 3.16 µM): < 6.00
- pIC50 (second compound 10 µM): < 6.00
- viability, T/C (second compound 0.0316 µM, first compound 0.00316 µM): 90.2%
- viability, T/C (second compound 0.0316 µM, first compound 0.01 µM): 98.2%
- viability, T/C [1]: 99.4%
- viability, T/C [2]: 90.2%
- viability, T/C [3]: 94.6%
- viability, T/C [4]: 77.4%
- viability, T/C (second compound 0.1 µM, first compound 0.00316 µM): 102%
- viability, T/C (second compound 0.1 µM, first compound 0.01 µM): 102%
- viability, T/C [5]: 109%
- viability, T/C [6]: 95%
- viability, T/C [7]: 98.7%
- viability, T/C [8]: 75%
- viability, T/C (second compound 0.316 µM, first compound 0.00316 µM): 97.7%
- viability, T/C (second compound 0.316 µM, first compound 0.01 µM): 95.1%
- viability, T/C [9]: 94.8%
- viability, T/C [10]: 104%
- viability, T/C [11]: 104%
- viability, T/C [12]: 70.7%
- viability, T/C (second compound 1 µM, first compound 0.00316 µM): 108%
- viability, T/C (second compound 1 µM, first compound 0.01 µM): 93.9%
- viability, T/C [13]: 92.1%
- viability, T/C [14]: 99.5%
- viability, T/C [15]: 90%
- viability, T/C [16]: 74%
- viability, T/C (second compound 3.16 µM, first compound 0.00316 µM): 107%
- viability, T/C (second compound 3.16 µM, first compound 0.01 µM): 92.9%
- viability, T/C [17]: 105%
- viability, T/C [18]: 96.6%
- viability, T/C [19]: 96.4%
- viability, T/C [20]: 76.5%
- viability, T/C (second compound 10 µM, first compound 0.00316 µM): 99.1%
- viability, T/C (second compound 10 µM, first compound 0.01 µM): 101%
- viability, T/C [21]: 96.3%
- viability, T/C [22]: 98.7%
- viability, T/C [23]: 95%
- viability, T/C [24]: 68%

Compound: CNCc1ccc(-c2[nH]c3cc(F)cc4c3c2CCNC4=O)cc1 + COC1C(OC(N)=O)C(O)C(Oc2ccc3c(O)c(NC(=O)c4ccc(O)c(CC=C(C)C)c4)c(=O)oc3c2C)OC1(C)C
- pIC50 (second compound 0.0316 µM): < 5.00
- pIC50 (second compound 0.1 µM): < 5.00
- pIC50 (second compound 0.316 µM): < 5.00
- pIC50 (second compound 1 µM): < 5.00
- pIC50 (second compound 3.16 µM): < 5.00
- pIC50 (second compound 10 µM): < 5.00
- viability, T/C [1]: 94.8%
- viability, T/C [2]: 95.1%
- viability, T/C [3]: 101%
- viability, T/C [4]: 106%
- viability, T/C (second compound 0.0316 µM, first compound 3.16 µM): 126%
- viability, T/C (second compound 0.0316 µM, first compound 10 µM): 123%
- viability, T/C [5]: 96.4%
- viability, T/C [6]: 95.6%
- viability, T/C [7]: 92.9%
- viability, T/C [8]: 120%
- viability, T/C (second compound 0.1 µM, first compound 3.16 µM): 115%
- viability, T/C (second compound 0.1 µM, first compound 10 µM): 130%
- viability, T/C [9]: 102%
- viability, T/C [10]: 103%
- viability, T/C [11]: 106%
- viability, T/C [12]: 97.8%
- viability, T/C (second compound 0.316 µM, first compound 3.16 µM): 118%
- viability, T/C (second compound 0.316 µM, first compound 10 µM): 125%
- viability, T/C [13]: 101%
- viability, T/C [14]: 94.9%
- viability, T/C [15]: 107%
- viability, T/C [16]: 98%
- viability, T/C (second compound 1 µM, first compound 3.16 µM): 113%
- viability, T/C (second compound 1 µM, first compound 10 µM): 114%
- viability, T/C [17]: 103%
- viability, T/C [18]: 105%
- viability, T/C [19]: 93.8%
- viability, T/C [20]: 98.2%
- viability, T/C (second compound 3.16 µM, first compound 3.16 µM): 133%
- viability, T/C (second compound 3.16 µM, first compound 10 µM): 93.6%
- viability, T/C [21]: 102%
- viability, T/C [22]: 88.3%
- viability, T/C [23]: 107%
- viability, T/C [24]: 101%
- viability, T/C (second compound 10 µM, first compound 3.16 µM): 125%
- viability, T/C (second compound 10 µM, first compound 10 µM): 108%

Reference: PubChem BioAssay AID1963835 (Molecular Pharmacology Branch, DTP, NCI, 2024)
